Measurements reported in EPA's ToxRefDB 2.

Assays:
rat [1] = conditions: Subchronic oral toxicity in rodents, fischer, Feed, dose end: 14 week, group: systemic
mouse [2] = conditions: Carcinogenicity; b6c3f1; Oral; Gavage/Intubation; dose end: 90 week; group: systemic; systemic / pathology microscopic / liver / carcinoma + systemic / in life observation / clinical signs / alopecia + systemic / in life …
rat [3] = conditions: Carcinogenicity; other; Oral; Gavage/Intubation; dose end: 113 week; group: systemic; systemic / in life observation / body weight / body weight gain + systemic / in life observation / clinical signs / nasal discharge + …
mouse [4] = conditions: Subchronic oral toxicity in rodents, b6c3f1, Feed, dose end: 14 week, group: systemic
rat [5] = conditions: Combined chronic toxicity/carcinogenicity, wistar, Oral, Feed, dose end: 103 week, group: systemic
dog [6] = conditions: Chronic toxicity, beagle, Oral, Capsule, dose end: 52 week, group: systemic
rat [7] = conditions: Multigenerational reproductive toxicity study, sprague dawley, Oral, Feed, dose end: 3 generation
rat [8] = conditions: Prenatal developmental toxicity study, other, Oral, Gavage/Intubation, dose end: 15 GD
rat [9] = conditions: Multigenerational reproductive toxicity study, other, Oral, Feed, dose end: 2 generation
mouse [10] = conditions: Carcinogenicity, cd1, Oral, Diet, dose end: 85 week, group: systemic
mouse [11] = conditions: Combined chronic toxicity/carcinogenicity, cd1, Oral, Diet, dose end: 104 week, group: systemic
rabbit = conditions: Prenatal developmental toxicity study, new zealand white, Oral, Gavage/Intubation, dose end: 18 GD
rat [12] = conditions: Chronic toxicity; other; Oral; Feed; dose end: 26 week; group: systemic; systemic / in life observation / body weight / body weight gain + systemic / in life observation / food consumption / food consumption + …
dog [13] = conditions: Chronic toxicity; beagle; Oral; Capsule; dose end: 33 week; group: systemic; systemic / hematology / hematocrit (hct) / hematocrit (hct) + systemic / hematology / hemoglobin (hgb) / hemoglobin (hgb) + systemic / organ…
dog [14] = conditions: Sub-acute repeat dose toxicity; beagle; Injection; Intravenous; dose end: 1 month; group: systemic; systemic / hematology / erythrocyte (rbc) count differential / erythrocyte (rbc) + systemic / hematology / hematocrit (hct) / hematocrit (…
rat [15] = conditions: Developmental neurotoxicity study; wistar; Inhalation; Whole-Body; dose end: 119 PND; group: cannot be grouped; systemic / in life observation / body weight / offspring (pup) weight
mouse [16] = conditions: Developmental neurotoxicity study; cd1; Inhalation; Whole-Body; dose end: 20 PND; group: cannot be grouped; systemic / in life observation / body weight / offspring (pup) weight gain + systemic / in life observation / clinical signs / grip strength
rat [17] = conditions: Developmental neurotoxicity study; wistar; Inhalation; Whole-Body; dose end: 98 PND; group: cannot be grouped; systemic / in life observation / body weight / offspring (pup) weight
rat [18] = conditions: Developmental neurotoxicity study, sprague dawley, Inhalation, Whole-Body, dose end: 63 PND, group: cannot be grouped
rat [19] = conditions: Developmental neurotoxicity study, wistar, Inhalation, Whole-Body, dose end: 81 PND, group: cannot be grouped
rat [20] = conditions: Developmental neurotoxicity study; sprague dawley; Inhalation; Whole-Body; dose end: 21 PND; group: cannot be grouped; developmental / developmental malformation / general / [other] + systemic / in life observation / body weight / offspring (pup) weight + …
[21] = systemic / pathology microscopic / liver / vacuolization cytoplasmic + systemic / organ weight / liver / nos + systemic / pathology gross…
[22] = systemic / organ weight / liver / absolute + systemic / organ weight / liver / relative to body weight + systemic / pathology gross / liver…
[23] = systemic / organ weight / liver / absolute + systemic / organ weight / liver / relative to body weight + systemic / pathology microscopic / …
[24] = systemic / organ weight / spleen / nos + systemic / organ weight / spleen / relative to body weight
[25] = systemic / in life observation / body weight / body weight gain + systemic / in life observation / food consumption / food consumption + …
[26] = group: offspring, systemic / in life observation / body weight / offspring (pup) weight
[27] = group: parental, systemic / in life observation / body weight / body weight
[28] = group: reproductive, reproductive / offspring survival early / birth index / live birth index
[29] = group: developmental, developmental / developmental malformation / bone / [other] + developmental / developmental malformation / bone / delayed ossification + …
[30] = group: maternal, systemic / in life observation / body weight / body weight + systemic / in life observation / body weight / body weight gain + systemic / in…
[31] = group: offspring, developmental / offspring survival late / viability index / viability index + systemic / in life observation / body weight / offspring (pup…
[32] = group: offspring, systemic / in life observation / body weight / offspring (pup) weight + systemic / in life observation / body weight / offspring (pup) …
[33] = group: parental, systemic / in life observation / body weight / body weight gain
[34] = group: parental, systemic / in life observation / body weight / body weight gain + systemic / in life observation / body weight / body weight + systemic / in…
[35] = group: reproductive, reproductive / reproductive performance / mating / mating
[36] = systemic / in life observation / mortality / mortality + systemic / pathology microscopic / adrenal gland / amyloid deposition + systemic / …
[37] = group: developmental, developmental / developmental malformation / bone / fused + developmental / developmental malformation / bone / supernumerary
[38] = group: maternal, reproductive / reproductive performance / resorptions / resorptions
[39] = systemic / in life observation / body weight / body weight gain + systemic / in life observation / clinical signs / motor activity
[40] = systemic / in life observation / body weight / body weight gain + systemic / in life observation / clinical signs / motor activity + …
[41] = systemic / in life observation / body weight / body weight + systemic / in life observation / body weight / body weight gain + developmental…

`ClC(Cl)C(Cl)Cl` [1,1,2,2-Tetrachloroethane] showed an LOAEL (rat [1]; systemic / in life observation / body weight / body weight gain + systemic / pathology microscopic / liver / vacuolization cytoplasmic) of 40 mg/kg/day, an NOAEL (rat [1]; systemic / in life observation / body weight / body weight gain + systemic / pathology microscopic / liver / vacuolization cytoplasmic + …) of 20 mg/kg/day and an LEL (rat [1]; [21]) of 20 mg/kg/day. For the same compound, the NEL (rat [1]; [21]) was less than 20 mg/kg/day, the LEL (mouse [2]) was 142 mg/kg/day and the LOAEL (mouse [2]) was greater than 284 mg/kg/day. The NEL (mouse [2]) was less than 142 mg/kg/day, the NOAEL (mouse [2]) was no less than 284 mg/kg/day and the LEL (rat [3]) was 43 mg/kg/day. The LOAEL (rat [3]) was greater than 76 mg/kg/day, the NEL (rat [3]) was less than 43 mg/kg/day and the NOAEL (rat [3]) was no less than 76 mg/kg/day. For the same compound, the LEL (mouse [4]; [22]) was 80 mg/kg/day, the NEL (mouse [4]; [22]) was less than 80 mg/kg/day and the LOAEL (mouse [4]; [23]) was 160 mg/kg/day. For the same compound, the NOAEL (mouse [4]; [23]) was 80 mg/kg/day.

Work on `CC(C)=CC1C(C(=O)OCc2coc(Cc3ccccc3)c2)C1(C)C` (stereo not drawn) [Resmethrin] yielded an LOAEL (rat [5]; systemic / organ weight / liver / absolute + systemic / in life observation / body weight / body weight + systemic / in life observation / …) of 233 mg/kg/day, an NOAEL (rat [5]; systemic / organ weight / liver / absolute + systemic / organ weight / liver / relative to body weight + systemic / organ weight / spleen / …) of 47 mg/kg/day and an LEL (rat [5]; [24]) of 47 mg/kg/day. For the same compound, the NEL (rat [5]; [24]) was less than 47 mg/kg/day, the NEL (dog [6]; [25]) was 108 mg/kg/day and the NOAEL (dog [6]; [25]) was 108 mg/kg/day. For the same compound, the LOAEL (dog [6]; systemic / in life observation / body weight / body weight gain + systemic / pathology microscopic / eye / cataract, subcapsular) was 430 mg/kg/day, the LEL (dog [6]; systemic / in life observation / body weight / body weight gain + systemic / pathology microscopic / eye / cataract, subcapsular + systemic…) was 430 mg/kg/day and the LEL (rat [7]; [26]) was 25 mg/kg/day. For the same compound, the LOAEL (rat [7]; [26]) was 25 mg/kg/day, the NEL (rat [7]; [26]) was less than 25 mg/kg/day and the NOAEL (rat [7]; [26]) was less than 25 mg/kg/day. For the same compound, the LEL (rat [7]; [27]) was 40 mg/kg/day, the LOAEL (rat [7]; [27]) was 40 mg/kg/day and the NEL (rat [7]; [27]) was 25 mg/kg/day. For the same compound, the NOAEL (rat [7]; [27]) was 25 mg/kg/day, the LEL (rat [7]; [28]) was 40 mg/kg/day and the LOAEL (rat [7]; [28]) was greater than 62.5 mg/kg/day. For the same compound, the NEL (rat [7]; [28]) was 25 mg/kg/day, the NOAEL (rat [7]; [28]) was no less than 62.5 mg/kg/day and the LEL (rat [8]; [29]) was 80 mg/kg/day. The LOAEL (rat [8]; [29]) was 80 mg/kg/day, the NEL (rat [8]; [29]) was 40 mg/kg/day and the NOAEL (rat [8]; [29]) was 40 mg/kg/day. The LEL (rat [8]; [30]) was 80 mg/kg/day, the LOAEL (rat [8]; [30]) was 80 mg/kg/day and the NEL (rat [8]; [30]) was 40 mg/kg/day. It also gave an NOAEL (rat [8]; [30]) of 40 mg/kg/day, an LOAEL (rat [9]; [31]) of 70.8 mg/kg/day and an NOAEL (rat [9]; [31]) of 34.8 mg/kg/day. For the same compound, the LEL (rat [9]; [32]) was 34.8 mg/kg/day, the NEL (rat [9]; [32]) was 17.4 mg/kg/day and the NEL (rat [9]; [33]) was 34.8 mg/kg/day. The NOAEL (rat [9]; [33]) was 34.8 mg/kg/day, the LEL (rat [9]; [34]) was 70.8 mg/kg/day and the LOAEL (rat [9]; [34]) was 70.8 mg/kg/day. It also gave an LEL (rat [9]; [35]) of 70.8 mg/kg/day, an LOAEL (rat [9]; [35]) of 70.8 mg/kg/day and an NEL (rat [9]; [35]) of 34.8 mg/kg/day. The NOAEL (rat [9]; [35]) was 34.8 mg/kg/day, the LOAEL (mouse [10]; [36]) was 138 mg/kg/day and the NEL (mouse [10]; [36]) was 36.3 mg/kg/day. For the same compound, the NOAEL (mouse [10]; [36]) was 71.3 mg/kg/day, the LEL (mouse [10]; systemic / organ weight / adrenal gland / absolute + systemic / organ weight / adrenal gland / relative to body weight + systemic / organ …) was 71.3 mg/kg/day and the LOAEL (mouse [11]; systemic / in life observation / mortality / mortality) was 84.3 mg/kg/day. The NOAEL (mouse [11]; systemic / in life observation / mortality / mortality + systemic / pathology microscopic / liver / adenoma/carcinoma combined + systemic / …) was 43.4 mg/kg/day, the LEL (mouse [11]; [23]) was 43.4 mg/kg/day and the NEL (mouse [11]; [23]) was less than 43.4 mg/kg/day. It also gave an LEL (rabbit; [37]) of 100 mg/kg/day, an LOAEL (rabbit; [37]) of 100 mg/kg/day and an NEL (rabbit; [37]) of 30 mg/kg/day. It also gave an NOAEL (rabbit; [37]) of 30 mg/kg/day, an LEL (rabbit; [38]) of 100 mg/kg/day and an LOAEL (rabbit; [38]) of 100 mg/kg/day. The NEL (rabbit; [38]) was 30 mg/kg/day and the NOAEL (rabbit; [38]) was 30 mg/kg/day.

`CN(C)[C@@H]1C(=O)C(C(N)=O)=C(O)[C@@]2(O)C(=O)C3=C(O)c4c(O)cccc4[C@@](C)(O)[C@H]3C[C@@H]12` [Tetracycline] gave an LEL (rat [12]) of 125 mg/kg/day, an LOAEL (rat [12]) greater than 500 mg/kg/day and an NEL (rat [12]) of less than 125 mg/kg/day. The NOAEL (rat [12]) was no less than 500 mg/kg/day, the LEL (dog [13]) was 500 mg/kg/day and the LOAEL (dog [13]) was greater than 500 mg/kg/day. The NEL (dog [13]) was 250 mg/kg/day, the NOAEL (dog [13]) was no less than 500 mg/kg/day and the LEL (dog [14]) was 40 mg/kg/day. The LOAEL (dog [14]) was greater than 40 mg/kg/day, the NEL (dog [14]) was less than 40 mg/kg/day and the NOAEL (dog [14]) was no less than 40 mg/kg/day.

With `Cc1ccccc1` [Toluene] the LEL (rat [15]) was 1200 ppm, the LOAEL (rat [15]) was greater than 1200 ppm and the NEL (rat [15]) was less than 1200 ppm. For the same compound, the NOAEL (rat [15]) was no less than 1200 ppm, the LEL (mouse [16]) was 2000 ppm and the LOAEL (mouse [16]) was greater than 2000 ppm. The NEL (mouse [16]) was 400 ppm, the NOAEL (mouse [16]) was no less than 2000 ppm and the LEL (rat [17]) was 1800 ppm. It also gave an LOAEL (rat [17]) greater than 1800 ppm, an NEL (rat [17]) of less than 1800 ppm and an NOAEL (rat [17]) of no less than 1800 ppm. It also gave an LEL (rat [18]; [39]) of 8000 ppm, an NEL (rat [18]; [39]) of less than 8000 ppm and an LOAEL (rat [18]; [40]) greater than 12000 ppm. For the same compound, the NOAEL (rat [18]; [40]) was no less than 12000 ppm, the NEL (rat [19]; systemic / in life observation / body weight / body weight + systemic / in life observation / body weight / body weight gain) was 600 ppm and the LEL (rat [19]; [41]) was 1000 ppm. For the same compound, the LOAEL (rat [19]; [41]) was greater than 1200 ppm, the NOAEL (rat [19]; [41]) was no less than 1200 ppm and the LEL (rat [20]) was 12000 ppm. It also gave an LOAEL (rat [20]) greater than 12000 ppm, an NEL (rat [20]) of 8000 ppm and an NOAEL (rat [20]) of no less than 12000 ppm.
